Activity calls are given as the source filed them.
Assays:
[1] = target: T1, Heat shock factor protein 1 (Mus musculus, UniProt P38532); assay: enhancement of HSF1-driven luciferase signal – cell-based, NIH3T3, luminescence, dose retest, confirmation (AID 435004); format: functional;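 also: stress induced by proteasome inhibitor MG132 added 30 min after compound; luciferase reporter driven by HSF1 response element in NIH3T3 cells; actives raise luminescence as potentiators of the MG132 stress response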
T1 sequence (P38532 whole entry): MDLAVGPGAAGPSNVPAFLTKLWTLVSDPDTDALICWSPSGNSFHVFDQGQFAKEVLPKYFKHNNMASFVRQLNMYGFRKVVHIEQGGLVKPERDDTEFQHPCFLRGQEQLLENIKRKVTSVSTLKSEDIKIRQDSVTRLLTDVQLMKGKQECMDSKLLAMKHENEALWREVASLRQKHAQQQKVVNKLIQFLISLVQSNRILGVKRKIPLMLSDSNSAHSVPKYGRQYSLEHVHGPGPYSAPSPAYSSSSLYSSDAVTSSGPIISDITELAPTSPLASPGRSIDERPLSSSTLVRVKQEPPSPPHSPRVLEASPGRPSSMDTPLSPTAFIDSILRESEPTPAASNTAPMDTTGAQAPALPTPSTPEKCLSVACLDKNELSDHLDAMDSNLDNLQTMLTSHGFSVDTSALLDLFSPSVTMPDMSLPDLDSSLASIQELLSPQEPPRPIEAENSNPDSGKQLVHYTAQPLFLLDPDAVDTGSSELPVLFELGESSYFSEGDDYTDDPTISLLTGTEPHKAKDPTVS

[2] = viability loss in THP-1 monocytes – THP-1 cells, cytotoxicity control for Vif-APOBEC3G degradation inhibitor project, dose response (AID 1117359); format: functional; details: THP-1
[3] = microbe, parasite or virus in culture; format: functional; details: Mycobacterium tuberculosis
[4] = target: T2, Ubiquitin-conjugating enzyme E2 N (Homo sapiens, UniProt P61088); format: functional;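 also: Dose-response confirmation in a TR-FRET assay detecting UBC13-driven polyubiquitin chain formation, inhibition measured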
T2 sequence (P61088 whole entry): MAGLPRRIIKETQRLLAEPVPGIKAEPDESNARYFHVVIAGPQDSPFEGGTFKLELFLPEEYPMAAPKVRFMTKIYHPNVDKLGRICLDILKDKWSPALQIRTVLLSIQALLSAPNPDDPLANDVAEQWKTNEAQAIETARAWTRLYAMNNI

[5] = target: T3, Small ubiquitin-related modifier 1 (Homo sapiens, UniProt P63165); assay: SUMO1 protein interaction blockers, potency – biochemical, fluorescence polarization, uHTS hits, dose response (AID 624382); format: functional; details: read-out: IC50_Mean
[6] = target: T3, Small ubiquitin-related modifier 1; assay: SUMO1 protein-protein binding blockers, potency – biochemical, FRET, dose response (AID 624383); format: functional; details: read-out: IC50_Mean
[7] = target: T4, Rac GTPase-activating protein 1 (Homo sapiens, UniProt Q9H0H5); assay: blockers of MgcRacGAP-driven Rac1 GTP hydrolysis – biochemical, ADP Hunter fluorescence, primary and confirmatory, confirmation (AID 624330); format: functional
T4 sequence (Q9H0H5 whole entry): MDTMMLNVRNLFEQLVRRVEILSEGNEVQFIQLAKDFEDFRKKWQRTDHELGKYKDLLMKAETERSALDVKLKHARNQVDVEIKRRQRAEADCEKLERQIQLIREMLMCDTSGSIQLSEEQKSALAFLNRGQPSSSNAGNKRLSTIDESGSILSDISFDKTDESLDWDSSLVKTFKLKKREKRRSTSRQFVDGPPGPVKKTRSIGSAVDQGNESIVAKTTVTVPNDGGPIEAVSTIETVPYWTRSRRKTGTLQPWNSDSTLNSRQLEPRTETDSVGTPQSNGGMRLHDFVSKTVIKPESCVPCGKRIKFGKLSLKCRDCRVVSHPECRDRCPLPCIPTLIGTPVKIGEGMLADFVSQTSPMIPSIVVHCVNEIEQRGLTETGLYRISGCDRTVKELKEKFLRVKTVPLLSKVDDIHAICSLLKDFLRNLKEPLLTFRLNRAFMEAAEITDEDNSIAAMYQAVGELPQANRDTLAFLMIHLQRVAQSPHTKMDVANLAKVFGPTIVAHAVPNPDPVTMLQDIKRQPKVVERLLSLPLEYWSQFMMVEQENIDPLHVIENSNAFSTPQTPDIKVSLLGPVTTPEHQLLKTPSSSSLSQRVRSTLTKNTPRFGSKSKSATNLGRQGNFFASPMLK

[8] = Luminescence Cell-Based Dose Retest to Confirm Inhibitors of Cancer Stem Cells. [Related pubchem assays (depositor defined):AID2717, AID2721]; format: functional; details: Homo sapiens
Mu-type opioid receptor = Mu-type opioid receptor (Homo sapiens, UniProt P35372); format: functional, cell-based;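 also: U2OS cells with beta-arrestin recruitment to OPRM1 by beta-gal complementation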
[9] = target: 5-hydroxytryptamine receptor 2A (Mus musculus, UniProt P35363); format: functional, cell-based;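 also: CHO-K1 cells with tagged receptor and beta-arrestin; agonist potency measured as compound-induced activation of the receptor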
[10] = blockers of HIV-1 envelope-mediated cell-cell fusion – cherry-pick, dose response (AID 652057); format: functional, cell-based
[11] = blockers of HIV-1 ZM109 envelope-driven cell-cell fusion – HeLa effector, CEM target cells, luciferase, cherry-pick, dose response (AID 652058); format: functional, cell-based;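 also: luciferase signal from HIV-1 Env mediated cell-cell fusion of effector and target cells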
[12] = off-target signal loss in HeLa-CEM21 co-culture – HeLa F-luc CTL cells, cherry-picked, counter-screen for HIV-1 Env fusion inhibitor project, dose response (AID 652040); format: functional, cell-based;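 also: potency for signal decrease marking cytotoxic or nonspecific inhibition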
[13] = HIV-1 AD8 envelope cell-cell fusion blockers – cherry-pick, dose response (AID 652062); format: functional, cell-based;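 also: luciferase signal from cell-cell fusion driven by HIV-1 clade B AD8 Env; potency is for inhibitors of fusion seen as a drop in luminescence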
Beta-galactosidase = Beta-galactosidase (Escherichia coli, UniProt Q8VNN2); assay: Dose response counterscreen for EBI2 assay utilizing the enzyme, b-galactosidase.; format: functional
Prothrombin = Prothrombin (Homo sapiens, UniProt P00734); assay: Thrombin 1536 HTS Dose Response Confirmation. [Related pubchem assays: 1046 (Thrombin 1536 HTS; hits were confirmed in this assay)]; format: functional
Paired box protein Pax-8 = Paired box protein Pax-8 (Homo sapiens, UniProt Q06710); assay: PAX8 transcriptional activity inhibition in RMG-I – RMG-I cells, luciferase, cherry-pick, dose response (AID 687027); format: functional, cell-based;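 also: luciferase reporter driven by Pax8 target thyroperoxidase promoter measured by SteadyGlo luminescence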
[14] = OVCAR-3 cell viability loss – plate reader, dry powder samples, PAX8 inhibitor project, dose response (AID 743044); format: functional, cell-based
[15] = IGROV1 cell killing – plate reader, dry powder samples, PAX8 inhibitor project, dose response (AID 743043); format: functional, cell-based; details: IGROV-1
[16] = OVCAR8 cell viability loss – plate reader, dry powder samples, PAX8 project, dose response (AID 743197); format: functional, cell-based; details: OVCAR-8
[17] = T. cruzi growth inhibition in host cells, dose response, cell-based, plate reader, dry powder, set 2 (AID 652275); format: functional
HEK293 = assay: EBV LMP1 TES2 canonical NF-kB signalling blockers – cell-based, HEK293, luciferase, cherry-pick, dose response (AID 588343); format: functional; details: Homo sapiens
[18] = target: T5, Low molecular weight phosphotyrosine protein phosphatase (Homo sapiens, UniProt P24666); format: functional; details: read-out: IC50_Mean;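 also: Dose-response confirmation assay measuring inhibition of LMPTP enzyme activity by fluorescence intensity read-out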
T5 sequence (P24666 whole entry): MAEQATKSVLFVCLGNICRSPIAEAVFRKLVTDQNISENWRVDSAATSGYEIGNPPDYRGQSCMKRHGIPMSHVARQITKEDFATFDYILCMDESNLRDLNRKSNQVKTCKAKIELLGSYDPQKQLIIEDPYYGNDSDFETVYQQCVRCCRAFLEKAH

[19] = target: Glucose-6-phosphate 1-dehydrogenase (Homo sapiens, UniProt P11413); assay: inhibition of Homo sapiens G6PD, dose series – biochemical, fluorescence, selectivity assay for P. falciparum G6PD inhibitor project, dose response (AID 504792); format: functional
Cytochrome P450 2C19 = Cytochrome P450 2C19 (Homo sapiens, UniProt P33261); assay: Cytochrome panel assay with activity outcomes. Panel member name: p450-cyp2c19 Compounds with AC50 equal or less than 10 uM are considered active; format: functional
Cytochrome P450 3A4 = Cytochrome P450 3A4 (Homo sapiens, UniProt P08684);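 also: CYP3A4 tested as one member of a cytochrome P450 panel screen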
[20] = HPDE-C7 pancreatic duct cell viability loss – fluorescence, HTS (AID 430); format: functional, cell-based; details: Homo sapiens
[21] = viability loss of HPDE-C7K cells – cell-based, fluorescence, HTS, primary screen (AID 431); format: functional; details: Homo sapiens
Genome polyprotein = Genome polyprotein (dengue virus type 2, UniProt P29990); assay: flavivirus cap methylation enzyme inhibition – biochemical, confirmation dose response, primary screen (AID 588689); format: functional
Chain of Genome polyprotein (P29990 2492-3391 limits assumed): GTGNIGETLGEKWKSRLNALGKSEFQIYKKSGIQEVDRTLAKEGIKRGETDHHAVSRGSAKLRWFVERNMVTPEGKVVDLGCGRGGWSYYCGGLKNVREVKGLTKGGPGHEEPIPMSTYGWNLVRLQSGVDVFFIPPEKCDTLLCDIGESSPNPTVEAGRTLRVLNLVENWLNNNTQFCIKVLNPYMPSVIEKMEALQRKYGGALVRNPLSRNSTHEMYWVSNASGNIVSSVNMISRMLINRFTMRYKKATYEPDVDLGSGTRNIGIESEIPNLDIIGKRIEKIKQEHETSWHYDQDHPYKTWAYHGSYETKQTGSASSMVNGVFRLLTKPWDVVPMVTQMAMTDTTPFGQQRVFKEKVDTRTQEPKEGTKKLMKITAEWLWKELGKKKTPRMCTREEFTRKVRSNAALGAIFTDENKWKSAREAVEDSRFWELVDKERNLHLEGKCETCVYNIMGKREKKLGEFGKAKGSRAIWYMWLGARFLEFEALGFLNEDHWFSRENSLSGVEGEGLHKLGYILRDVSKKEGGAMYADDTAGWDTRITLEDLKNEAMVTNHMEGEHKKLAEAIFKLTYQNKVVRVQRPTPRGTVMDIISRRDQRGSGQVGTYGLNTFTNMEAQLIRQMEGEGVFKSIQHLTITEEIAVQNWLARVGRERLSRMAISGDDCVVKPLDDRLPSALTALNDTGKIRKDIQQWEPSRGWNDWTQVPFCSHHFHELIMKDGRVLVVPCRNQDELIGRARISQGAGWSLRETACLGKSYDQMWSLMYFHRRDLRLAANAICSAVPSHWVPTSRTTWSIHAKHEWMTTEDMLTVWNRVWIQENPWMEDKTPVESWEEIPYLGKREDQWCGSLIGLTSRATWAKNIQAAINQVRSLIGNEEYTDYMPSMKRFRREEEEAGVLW

Chain of Beta-galactosidase (Q8VNN2 whole entry): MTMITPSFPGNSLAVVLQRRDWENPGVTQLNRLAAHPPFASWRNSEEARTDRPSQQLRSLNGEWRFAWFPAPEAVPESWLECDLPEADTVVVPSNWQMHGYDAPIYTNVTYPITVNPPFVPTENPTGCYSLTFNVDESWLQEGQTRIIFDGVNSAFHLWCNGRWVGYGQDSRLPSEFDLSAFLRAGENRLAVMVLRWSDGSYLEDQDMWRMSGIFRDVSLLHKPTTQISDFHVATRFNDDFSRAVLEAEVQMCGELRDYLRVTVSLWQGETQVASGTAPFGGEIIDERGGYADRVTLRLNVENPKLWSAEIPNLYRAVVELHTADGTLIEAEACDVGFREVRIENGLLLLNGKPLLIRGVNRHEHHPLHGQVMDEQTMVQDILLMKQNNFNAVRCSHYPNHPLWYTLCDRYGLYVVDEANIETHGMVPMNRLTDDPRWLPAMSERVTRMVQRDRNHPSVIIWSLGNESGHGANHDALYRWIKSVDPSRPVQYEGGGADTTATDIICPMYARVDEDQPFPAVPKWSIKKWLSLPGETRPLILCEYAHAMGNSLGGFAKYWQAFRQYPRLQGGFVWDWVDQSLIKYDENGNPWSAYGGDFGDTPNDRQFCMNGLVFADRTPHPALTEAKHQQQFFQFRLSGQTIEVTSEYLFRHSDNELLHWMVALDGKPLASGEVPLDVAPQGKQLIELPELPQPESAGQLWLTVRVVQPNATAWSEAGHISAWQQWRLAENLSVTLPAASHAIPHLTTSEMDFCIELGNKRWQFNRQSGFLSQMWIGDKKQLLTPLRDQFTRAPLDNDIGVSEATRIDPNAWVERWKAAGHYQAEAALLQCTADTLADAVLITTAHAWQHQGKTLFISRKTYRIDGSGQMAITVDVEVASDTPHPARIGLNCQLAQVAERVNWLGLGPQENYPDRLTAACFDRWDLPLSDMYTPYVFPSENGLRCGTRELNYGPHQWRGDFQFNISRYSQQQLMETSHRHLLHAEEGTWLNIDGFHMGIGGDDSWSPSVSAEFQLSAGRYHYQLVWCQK
Chain of 5-hydroxytryptamine receptor 2A (P35363 whole entry, the tested form may be a part): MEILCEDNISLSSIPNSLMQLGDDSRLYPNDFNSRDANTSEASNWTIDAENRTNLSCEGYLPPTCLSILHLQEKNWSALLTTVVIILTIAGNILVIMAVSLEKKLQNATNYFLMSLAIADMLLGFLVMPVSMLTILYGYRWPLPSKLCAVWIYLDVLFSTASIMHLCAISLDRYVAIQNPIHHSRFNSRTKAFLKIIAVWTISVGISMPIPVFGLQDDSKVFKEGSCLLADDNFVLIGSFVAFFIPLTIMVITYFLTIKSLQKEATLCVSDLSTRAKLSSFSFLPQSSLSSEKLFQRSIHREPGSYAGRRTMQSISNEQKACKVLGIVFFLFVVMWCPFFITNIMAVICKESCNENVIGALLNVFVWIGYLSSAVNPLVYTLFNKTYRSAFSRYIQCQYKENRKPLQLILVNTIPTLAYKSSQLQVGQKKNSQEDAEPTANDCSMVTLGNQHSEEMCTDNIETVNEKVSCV
Chain of Mu-type opioid receptor (P35372 whole entry): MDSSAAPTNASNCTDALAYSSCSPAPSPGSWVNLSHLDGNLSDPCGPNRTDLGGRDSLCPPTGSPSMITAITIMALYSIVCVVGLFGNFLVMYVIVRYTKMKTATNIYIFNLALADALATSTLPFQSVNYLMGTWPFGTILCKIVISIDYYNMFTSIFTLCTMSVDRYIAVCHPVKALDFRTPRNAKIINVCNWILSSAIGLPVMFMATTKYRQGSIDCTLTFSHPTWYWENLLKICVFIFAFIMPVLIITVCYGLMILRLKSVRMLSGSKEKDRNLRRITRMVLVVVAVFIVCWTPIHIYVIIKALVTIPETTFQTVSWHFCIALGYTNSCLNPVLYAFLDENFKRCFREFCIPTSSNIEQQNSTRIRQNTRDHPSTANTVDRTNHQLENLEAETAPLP
Chain of Paired box protein Pax-8 (Q06710 whole entry): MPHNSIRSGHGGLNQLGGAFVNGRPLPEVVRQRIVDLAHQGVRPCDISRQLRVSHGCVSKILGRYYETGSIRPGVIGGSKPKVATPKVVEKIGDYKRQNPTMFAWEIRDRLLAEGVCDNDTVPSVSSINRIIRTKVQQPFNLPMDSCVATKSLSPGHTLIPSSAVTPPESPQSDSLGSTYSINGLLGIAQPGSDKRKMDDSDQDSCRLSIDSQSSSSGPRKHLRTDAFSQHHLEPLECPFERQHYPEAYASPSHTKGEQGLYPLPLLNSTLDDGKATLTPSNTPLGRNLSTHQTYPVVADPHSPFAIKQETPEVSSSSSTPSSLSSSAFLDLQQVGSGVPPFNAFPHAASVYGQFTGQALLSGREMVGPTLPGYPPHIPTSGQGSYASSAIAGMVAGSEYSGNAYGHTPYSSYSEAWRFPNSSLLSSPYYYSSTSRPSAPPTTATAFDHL
T3 sequence (P63165 whole entry): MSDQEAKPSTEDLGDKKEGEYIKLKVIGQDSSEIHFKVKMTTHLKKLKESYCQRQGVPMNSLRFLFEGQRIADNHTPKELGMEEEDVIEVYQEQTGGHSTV
Chain of Glucose-6-phosphate 1-dehydrogenase (P11413 whole entry): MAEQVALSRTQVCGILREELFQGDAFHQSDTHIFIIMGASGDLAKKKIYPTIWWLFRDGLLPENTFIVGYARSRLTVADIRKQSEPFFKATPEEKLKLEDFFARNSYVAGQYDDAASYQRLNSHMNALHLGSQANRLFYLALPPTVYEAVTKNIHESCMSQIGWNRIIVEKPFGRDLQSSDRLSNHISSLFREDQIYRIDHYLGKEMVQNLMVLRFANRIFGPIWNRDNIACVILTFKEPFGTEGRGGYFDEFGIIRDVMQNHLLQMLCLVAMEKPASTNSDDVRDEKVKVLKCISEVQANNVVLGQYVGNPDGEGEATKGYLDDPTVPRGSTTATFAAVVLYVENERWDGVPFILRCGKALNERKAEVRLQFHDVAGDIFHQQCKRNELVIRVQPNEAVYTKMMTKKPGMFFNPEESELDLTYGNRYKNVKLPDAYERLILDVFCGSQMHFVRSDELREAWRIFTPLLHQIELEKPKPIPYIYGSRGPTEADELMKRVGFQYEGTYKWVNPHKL
Chain of Cytochrome P450 3A4 (P08684 whole entry): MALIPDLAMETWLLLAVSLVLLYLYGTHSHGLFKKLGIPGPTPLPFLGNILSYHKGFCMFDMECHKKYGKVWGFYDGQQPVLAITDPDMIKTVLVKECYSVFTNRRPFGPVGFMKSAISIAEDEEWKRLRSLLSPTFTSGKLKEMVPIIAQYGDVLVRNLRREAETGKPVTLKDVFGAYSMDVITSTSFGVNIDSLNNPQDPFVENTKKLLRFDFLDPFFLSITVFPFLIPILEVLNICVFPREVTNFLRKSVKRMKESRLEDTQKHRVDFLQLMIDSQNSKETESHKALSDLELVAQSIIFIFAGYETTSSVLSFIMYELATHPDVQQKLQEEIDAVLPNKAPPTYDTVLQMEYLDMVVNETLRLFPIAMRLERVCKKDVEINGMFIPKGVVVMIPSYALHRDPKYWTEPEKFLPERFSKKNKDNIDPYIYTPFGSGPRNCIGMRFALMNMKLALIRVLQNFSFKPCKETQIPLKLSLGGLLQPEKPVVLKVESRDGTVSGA
Chain of Cytochrome P450 2C19 (P33261 whole entry): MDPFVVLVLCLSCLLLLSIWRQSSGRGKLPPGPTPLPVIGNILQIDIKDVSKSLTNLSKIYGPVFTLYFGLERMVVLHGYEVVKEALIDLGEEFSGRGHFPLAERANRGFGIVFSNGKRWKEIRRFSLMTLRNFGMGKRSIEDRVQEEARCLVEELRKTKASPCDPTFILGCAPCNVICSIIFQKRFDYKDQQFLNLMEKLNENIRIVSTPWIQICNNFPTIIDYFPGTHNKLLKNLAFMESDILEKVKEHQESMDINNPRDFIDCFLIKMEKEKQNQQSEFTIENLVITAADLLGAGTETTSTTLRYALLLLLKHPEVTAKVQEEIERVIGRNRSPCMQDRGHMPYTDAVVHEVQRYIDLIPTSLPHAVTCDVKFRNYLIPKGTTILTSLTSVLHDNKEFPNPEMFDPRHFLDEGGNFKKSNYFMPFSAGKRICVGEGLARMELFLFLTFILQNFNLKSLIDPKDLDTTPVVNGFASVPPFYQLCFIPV

CCOC(=O)c1sc2nc(CC(=O)OC)nc(NCc3ccco3)c2c1C
EC50 [1]: 63.7 µM (active) | CC50 [2]: 32.7 µM (active)

C=C1c2c(Cl)ccc(O)c2C(=O)C2=C(O)[C@]3(O)C(=O)C(C(N)=O)=C(O)[C@@H](N(C)C)[C@@H]3[C@@H](O)[C@H]12.O=C(O)c1cc(S(=O)(=O)O)ccc1O [MECLOCYCLINE SULFOSALICYLATE]
CC50 [3]: 16.4 µM (active) | IC50 [4]: > 20 µM (inactive) | IC50 [5]: 8.79 µM (active) | IC50 [6]: 39.7 µM (inactive) | IC50 [7]: 63 µM (active)

Cc1cc(C)c(O)c(-c2[nH]nc3c2C(c2cccc(O)c2)N(Cc2ccco2)C3=O)c1 (centres undefined)
AC50 [8]: 5.49 µM (active) | EC50 (Mu-type opioid receptor): 92.5 µM (inactive) | EC50 [9]: 8.01 µM (active)

O=C(CN(Cc1ccccc1)S(=O)(=O)c1ccc(F)cc1)NCCC1=CCCCC1
AC50 [10]: 2.55 µM (active) | AC50 [11]: 6.77 µM (active) | AC50 [12]: 17.1 µM (active) | AC50 [13]: 38 µM (active)

CC(C)N1CCOC(c2ccc(O)c(O)c2)C1 (centres undefined)
EC50 (Mu-type opioid receptor): 92.3 µM (inactive) | EC50 [9]: 1.68 µM (active)

CC(=O)N1CCc2cc(C(=O)CN3CCN(c4ccccn4)CC3)ccc21
EC50 (Mu-type opioid receptor): 92.5 µM (inactive) | EC50 [9]: 0.257 µM (active)

CCOC(=O)N1CCN(C(=O)c2cc3cc(C)ccc3[nH]2)CC1
IC50 (Beta-galactosidase): > 80 µM (inactive)

CCCCOC(=O)n1ccc(C(=O)Nc2ccccc2OC)n1
IC50 (Prothrombin): 13.8 µM (active)

C[C@@H]1CCCCO[C@@H](CN(C)Cc2ccc(C(F)(F)F)cc2)[C@H](C)CN([C@H](C)CO)C(=O)c2cc(NS(=O)(=O)c3ccc(F)cc3)ccc2O1
AC50 (Paired box protein Pax-8): 5.08 µM (active) | AC50 [14]: 25.2 µM (active) | AC50 [15]: 40 µM (active) | AC50 [16]: 40.3 µM (active)

CN(C)CC#Cc1cccc(-c2nc(C(=O)NCc3ccc4c(c3)OCO4)cc3c2[C@@H](CCO)N([S+]([O-])C(C)(C)C)C3)c1 (some centres undefined)
AC50 [17]: 0.0993 µM (active)

O=C(C[C@H]1CC[C@@H]2[C@H](COC[C@H](O)CN2S(=O)(=O)c2cccc(F)c2)O1)Nc1ccc(-c2ccccc2)cc1
AC50 (Paired box protein Pax-8): 17.2 µM (active) | AC50 [15]: 59.4 µM (active) | AC50 [16]: 42.6 µM (active)

C[C@H](CO)N1C[C@H](C)[C@@H](CN(C)Cc2ccc(Oc3ccccc3)cc2)Oc2ccc(NS(=O)(=O)c3ccc(Cl)cc3)cc2CC1=O
AC50 (Paired box protein Pax-8): 7.43 µM (active) | AC50 [14]: 68.7 µM (active) | AC50 [15]: 67.8 µM (active) | AC50 [16]: 62.6 µM (active)

CSc1nc2cc3c(cc2n1C(=O)c1ccc(C)cc1)OCCO3
IC50 (Prothrombin): 0.556 µM (active) | AC50 (HEK293): > 350 µM (inactive)

OC1(c2ccc(F)cc2)CCN(Cc2nnnn2Cc2cccs2)CC1
IC50 (Prothrombin): > 50 µM (not active)

CC(=Cc1ccccc1)C=C1SC(=S)N(CCCC(=O)Nc2ccc(C(=O)O)cc2)C1=O
IC50 [18]: 80 µM (inactive)

c1ccc(OCCNc2nc(NCC3CC3)nc3cc(-c4ccccc4)sc23)cc1
IC50 (Beta-galactosidase): 104 µM (inactive)

C#CCCc1cscc1/C=[N+](\[O-])c1ccc(C(=O)OCC)cc1
IC50 [19]: 29.7 µM (inactive)

CCc1ccccc1N1CSC2=C(C#N)C(c3ccccc3F)CC(=O)N2C1 (centres undefined)
IC50 [19]: > 80 µM (inactive)

CCN(CC)S(=O)(=O)c1cc(NC(=O)C(=O)c2c(-c3ccccc3)cc3ccccn23)ccc1C
AC50 [10]: 10.6 µM (active) | AC50 [11]: 24.9 µM (active) | AC50 [12]: 9.48 µM (active) | AC50 [13]: 17.1 µM (active)

O=C(O)CC(c1cccc2ccccc12)n1cccc1 (centres undefined)
AC50 (Cytochrome P450 2C19): 28.2 µM (inconclusive) | AC50 (Cytochrome P450 3A4): inconclusive

c1ccc2c(N3CCCCC3)ncnc2c1
AC50 [10]: 31.5 µM (active) | AC50 [11]: 5.37 µM (active) | AC50 [12]: 56.2 µM (active) | AC50 [13]: 53.9 µM (active)

O=C(COc1ccc(Cl)cc1)N1CCN(Cc2ccc3c(c2)OCO3)CC1 [FIPEXIDE]
IC50 (Beta-galactosidase): > 80 µM (inactive)

COc1ccc(C(=O)CSc2cc(C)nc3nc(C)nn23)cc1OC
EC50 [20]: > 20 µM (not active) | EC50 [21]: > 20 µM (not active)

COc1cccc(C(=O)Nc2nnc(S(=O)(=O)N(C)Cc3ccccc3)s2)c1
IC50 [19]: > 80 µM (inactive)

CCC(c1nnnn1-c1c(C)cccc1C)N1CCN(C/C=C/c2ccccc2)CC1 (centres undefined)
EC50 (Mu-type opioid receptor): 92.6 µM (inactive) | EC50 [9]: 0.362 µM (active)

O=C(O)c1cccc(-n2cccc2/C=C/[N+](=O)[O-])c1
IC50 (Genome polyprotein): 53.6 µM (active) | IC50 [5]: > 66.6 µM (inactive) | IC50 [6]: 26.5 µM (inactive)

Nc1nc(-c2ccco2)nn1C(=O)c1ccccc1
IC50 (Prothrombin): 0.926 µM (active)

Reference: ChEMBL document CHEMBL1201862, “PubChem BioAssay data set” (2004)
